The source of these data is ChEMBL document CHEMBL1139560, “Synthesis of linked berberine dimers and their remarkably enhanced DNA-binding affinities” (Bioorg Med Chem Lett, 2005).

Common to all, as to assay type: nucleic-acid assay
The subject of assay [1] is Nucleic Acid. The assay is described as follows: In vitro relative affinity for binding to d(AAGAATTCTT)2.
For assay [2], the system named is Nucleic Acid. Description: In vitro relative affinity for binding to d(TA AGAATTCTTA)2.
The subject of assay [3] is Nucleic Acid. The assay is described as follows: In vitro association constant for binding at d(AAGAATTCTT)2 done in 50 mM Tris-HCL in pH 6.35 at room temperature.
The test system of assay [4] is Nucleic Acid. The assay is described as follows: In vitro association constant for binding at d(TA AGAATTCTTA)2 done in 50 mM Tris-HCL in pH 6.35 at room temperature.

For the compound `COc1ccc2cc3[n+](cc2c1OCCCCCOc1c(OC)ccc2cc4[n+](cc12)CCc1cc2c(cc1-4)OCO2)CCc1cc2c(cc1-3)OCO2`, the results for the RA in assay [1] and in assay [2] were 4.7 and 11, respectively. The Ka in assay [3] stood at 57700; in assay [4], 321000.

As for `COc1ccc2cc3[n+](cc2c1OC)CCc1cc2c(cc1-3)OCO2`, the RA in assay [1] and in assay [2] was 1 each time. Moreover, the Ka in assay [3] was found to be 12400; in assay [4] it was 29300.

`COc1ccc2cc3[n+](cc2c1OCCCCCCOc1c(OC)ccc2cc4[n+](cc12)CCc1cc2c(cc1-4)OCO2)CCc1cc2c(cc1-3)OCO2`: the RA in assay [1] stood at 2.8; in assay [2], 8.5. In addition, the results for the Ka in assay [3] and in assay [4] were 34200 and 248000, respectively.

Consider `COc1ccc2cc3[n+](cc2c1OCCCOc1c(OC)ccc2cc4[n+](cc12)CCc1cc2c(cc1-4)OCO2)CCc1cc2c(cc1-3)OCO2`, for which the RA in assay [1] came out at 19.8; in assay [2], 94.2. Further, the figures for the Ka in assay [3] and in assay [4] were 246000 and 2.76e+06, respectively.

As for `COc1ccc2cc3[n+](cc2c1OCCCCOc1c(OC)ccc2cc4[n+](cc12)CCc1cc2c(cc1-4)OCO2)CCc1cc2c(cc1-3)OCO2`, the results for the RA in assay [1] and in assay [2] were 7.1 and 11.9, respectively. Moreover, the Ka in assay [3] is 87800; in assay [4] it was 349000.
